Measured values from patent US11439148B2, “Pyrimidine derivatives” (SYNGENTA PARTICIPATIONS AG, priority 2017, dated 2022).

Tested on: four weed species (ABUTH, CHEAL, DIGSA, SETVI)
Experiment: Adjuvant efficacy with nicosulfuron, glasshouse spray test, average over all species
Format: in vivo
Conditions: nicosulfuron WG, mean over 15 and 60 g/ha, adjuvant 0.2% v/v (none in No Adjuvant rows), 21 days, average of ABUTH
Protocol: (§1) The efficacy of adjuvants 1-12 as adjuvants for the herbicide nicosulfuron were tested in a glasshouse against four weed species sown into standard soil in pots and cultivated under controlled conditions in a glasshouse (at 24/18° C. day/night; 16 hours light; 65% humidity). Nicosulfuron was added to the spray tank as a standard WG (water dispersible granule) formulation.
(§2) The spray tests were also carried out using nicosulfuron in conjunction with adjuvants 1-12. The adjuvant was added to the spray solution at a rate of 0.2% v/v. All spray solutions also contained 12.5% v/v of iso-Propanol. The weed species and their BBCH growth stage at spraying were Abutilon theophrasti (ABUTH; growth stage 13), Chenopodium album (CHEAL; growth stage 13-14), Digitaria sanguinalis (DIGSA; growth stage 11), and Setaria viridis (SETVI; growth stage 13). Each spray test was replicated three times. The test plants were then grown in a glasshouse under controlled conditions (at 24/18° C. day/night; 16 hours light; 65% humidity) and watered twice a day. The efficacy of the herbicide was assessed visually and expressed as a percentage of the leaf area killed. Samples were assessed at a time period of 21 days following application. The results shown in Table 1 below are mean averages over the two rates of nicosulfuron, and the three replicates.

SMILES | Mean % Herbicidal Activity Average over all Species [%]
CCCCCCCCC=CCCCCCCCCOc1cc(OCCOCCOCCOCCOCCOCCOCCOCCOCCOCCOCCOCCOCCOCCOCCOCCOCCOCCOCCOCCOC)ncn1 [Adjuvant 11] | 82
CCCCCCCCCCCCOc1cc(OCC(C)OCC(C)OCC(C)OC)ncn1 (stereo not shown) [Adjuvant 12] | 85

Tested on: Abutilon theophrasti (ABUTH)
Experiment: Adjuvant efficacy with fomesafen, glasshouse spray test
Format: in vivo
Conditions: fomesafen sodium salt SL, mean over 100 and 200 g/ha and 3 replicates; adjuvant 0.2% v/v (none in No Adjuvant rows); % leaf area killed, 21 days after application; Tests 1-4 separate runs
Protocol: as §1, with “fomesafen (as the sodium salt)” for “nicosulfuron”, “species,” for “species”, “light,” for “light;”, “Fomesafen sodium salt” for “Nicosulfuron”, “SL (soluble concentrate)” for “WG (water dispersible granule)”
(§3) The spray tests were also carried out using fomesafen in conjunction with adjuvants 1-12. Unless otherwise stated, the adjuvants were added to the spray solution at a rate of 0.2% v/v. All spray solutions also contained 12.5% v/v of iso-Propanol to normalise the retention of the sprays on the hydrophobic plant surfaces. The weed species and their BBCH growth stage at spraying were Abutilon theophrasti (ABUTH; growth stage 12-13), Chenopodium album (CHEAL; growth stage 15), Ipomea hederacea (IPOHE; growth stage 12), and Setaria viridis (SETVI; growth stage 14). Each spray test was replicated three times. The test plants were then grown in a glasshouse under controlled conditions (at 24/18° C. day/night; 16 hours light; 65% humidity) and watered twice a day.
(§4) The efficacy of the herbicide was assessed visually and expressed as a percentage of the leaf area killed. Samples were assessed at a time period of 21 days following application. The results shown in Table 2 below are mean averages over the two rates of fomesafen, the three replicates […].

SMILES | Mean % Herbicidal Activity ABUTH [%]
CCCCCCCCC=CCCCCCCCCOc1cc(OCCOCCOCCOCCOCCOCCOCCOCCOCCOCCOCCOCCOCCOCCOCCOCCOCCOCCOCCOCCOC)ncn1 [Adjuvant 11] | 48
CCCCCCCCCCCCOc1cc(OCC(C)OCC(C)OCC(C)OC)ncn1 (stereo not shown) [Adjuvant 12] | 74

Tested on: Chenopodium album (CHEAL)
Experiment: as above
Format: in vivo
Conditions: fomesafen sodium salt SL, mean over 100 and 200 g/ha and 3 replicates; adjuvant 0.2% v/v (none in No Adjuvant rows); % leaf area killed, 21 days after application; Tests 1-4 separate runs
Protocol: as §1, with “fomesafen (as the sodium salt)” for “nicosulfuron”, “species,” for “species”, “light,” for “light;”, “Fomesafen sodium salt” for “Nicosulfuron”, “SL (soluble concentrate)” for “WG (water dispersible granule)”
as §3, §4

SMILES | Mean % Herbicidal Activity CHEAL [%]
CCCCCCCCC=CCCCCCCCCOc1cc(OCCOCCOCCOCCOCCOCCOCCOCCOCCOCCOCCOCCOCCOCCOCCOCCOCCOCCOCCOCCOC)ncn1 [Adjuvant 11] | 80
CCCCCCCCCCCCOc1cc(OCC(C)OCC(C)OCC(C)OC)ncn1 (stereo not shown) [Adjuvant 12] | 80

Tested on: Ipomea hederacea (IPOHE)
Experiment: as above
Format: in vivo
Conditions: fomesafen sodium salt SL, mean over 100 and 200 g/ha and 3 replicates; adjuvant 0.2% v/v (none in No Adjuvant rows); % leaf area killed, 21 days after application; Tests 1-4 separate runs
Protocol: as §1, with “fomesafen (as the sodium salt)” for “nicosulfuron”, “species,” for “species”, “light,” for “light;”, “Fomesafen sodium salt” for “Nicosulfuron”, “SL (soluble concentrate)” for “WG (water dispersible granule)”
as §3, §4

SMILES | Mean % Herbicidal Activity IPOHE [%]
CCCCCCCCC=CCCCCCCCCOc1cc(OCCOCCOCCOCCOCCOCCOCCOCCOCCOCCOCCOCCOCCOCCOCCOCCOCCOCCOCCOCCOC)ncn1 [Adjuvant 11] | 98
CCCCCCCCCCCCOc1cc(OCC(C)OCC(C)OCC(C)OC)ncn1 (stereo not shown) [Adjuvant 12] | 98

Tested on: Setaria viridis (SETVI)
Experiment: as above
Format: in vivo
Conditions: fomesafen sodium salt SL, mean over 100 and 200 g/ha and 3 replicates; adjuvant 0.2% v/v (none in No Adjuvant rows); % leaf area killed, 21 days after application; Tests 1-4 separate runs
Protocol: as §1, with “fomesafen (as the sodium salt)” for “nicosulfuron”, “species,” for “species”, “light,” for “light;”, “Fomesafen sodium salt” for “Nicosulfuron”, “SL (soluble concentrate)” for “WG (water dispersible granule)”
as §3, §4

SMILES | Mean % Herbicidal Activity SETVI [%]
CCCCCCCCC=CCCCCCCCCOc1cc(OCCOCCOCCOCCOCCOCCOCCOCCOCCOCCOCCOCCOCCOCCOCCOCCOCCOCCOCCOCCOC)ncn1 [Adjuvant 11] | 39
CCCCCCCCCCCCOc1cc(OCC(C)OCC(C)OCC(C)OC)ncn1 (stereo not shown) [Adjuvant 12] | 77

Tested on: four weed species (ABUTH, CHEAL, IPOHE, SETVI)
Experiment: Adjuvant efficacy with fomesafen, glasshouse spray test, average over all species
Format: in vivo
Conditions: fomesafen sodium salt SL, mean over 100 and 200 g/ha, adjuvant 0.2% v/v (none in No Adjuvant rows), 21 days, average of ABUTH
Protocol: as §1, with “fomesafen (as the sodium salt)” for “nicosulfuron”, “species,” for “species”, “light,” for “light;”, “Fomesafen sodium salt” for “Nicosulfuron”, “SL (soluble concentrate)” for “WG (water dispersible granule)”
as §3, §4

SMILES | Mean % Herbicidal Activity Average over all Species [%]
CCCCCCCCC=CCCCCCCCCOc1cc(OCCOCCOCCOCCOCCOCCOCCOCCOCCOCCOCCOCCOCCOCCOCCOCCOCCOCCOCCOCCOC)ncn1 [Adjuvant 11] | 66
CCCCCCCCCCCCOc1cc(OCC(C)OCC(C)OCC(C)OC)ncn1 (stereo not shown) [Adjuvant 12] | 82

Tested on: Abutilon theophrasti (ABUTH)
Experiment: Adjuvant efficacy with nicosulfuron, glasshouse spray test
Format: in vivo
Conditions: nicosulfuron WG, mean over 15 and 60 g/ha and 3 replicates; adjuvant 0.2% v/v (none in No Adjuvant rows); % leaf area killed, 21 days after application; Tests 1-4 separate runs
Protocol: as §1, §2

SMILES | Mean % Herbicidal Activity ABUTH [%]
CCCCCCCCC=CCCCCCCCCOc1cc(OCCOCCOCCOCCOCCOCCOCCOCCOCCOCCOCCOCCOCCOCCOCCOCCOCCOCCOCCOCCOC)ncn1 [Adjuvant 11] | 64
CCCCCCCCCCCCOc1cc(OCC(C)OCC(C)OCC(C)OC)ncn1 (stereo not shown) [Adjuvant 12] | 66

Tested on: Chenopodium album (CHEAL)
Experiment: as above
Format: in vivo
Conditions: nicosulfuron WG, mean over 15 and 60 g/ha and 3 replicates; adjuvant 0.2% v/v (none in No Adjuvant rows); % leaf area killed, 21 days after application; Tests 1-4 separate runs
Protocol: as §1, §2

SMILES | Mean % Herbicidal Activity CHEAL [%]
CCCCCCCCC=CCCCCCCCCOc1cc(OCCOCCOCCOCCOCCOCCOCCOCCOCCOCCOCCOCCOCCOCCOCCOCCOCCOCCOCCOCCOC)ncn1 [Adjuvant 11] | 82
CCCCCCCCCCCCOc1cc(OCC(C)OCC(C)OCC(C)OC)ncn1 (stereo not shown) [Adjuvant 12] | 83

Tested on: Digitaria sanguinalis (DIGSA)
Experiment: as above
Format: in vivo
Conditions: nicosulfuron WG, mean over 15 and 60 g/ha and 3 replicates; adjuvant 0.2% v/v (none in No Adjuvant rows); % leaf area killed, 21 days after application; Tests 1-4 separate runs
Protocol: as §1, §2

SMILES | Mean % Herbicidal Activity DIGSA [%]
CCCCCCCCC=CCCCCCCCCOc1cc(OCCOCCOCCOCCOCCOCCOCCOCCOCCOCCOCCOCCOCCOCCOCCOCCOCCOCCOCCOCCOC)ncn1 [Adjuvant 11] | 88
CCCCCCCCCCCCOc1cc(OCC(C)OCC(C)OCC(C)OC)ncn1 (stereo not shown) [Adjuvant 12] | 93

Tested on: Setaria viridis (SETVI)
Experiment: as above
Format: in vivo
Conditions: nicosulfuron WG, mean over 15 and 60 g/ha and 3 replicates; adjuvant 0.2% v/v (none in No Adjuvant rows); % leaf area killed, 21 days after application; Tests 1-4 separate runs
Protocol: as §1, §2

SMILES | Mean % Herbicidal Activity SETVI [%]
CCCCCCCCC=CCCCCCCCCOc1cc(OCCOCCOCCOCCOCCOCCOCCOCCOCCOCCOCCOCCOCCOCCOCCOCCOCCOCCOCCOCCOC)ncn1 [Adjuvant 11] | 94
CCCCCCCCCCCCOc1cc(OCC(C)OCC(C)OCC(C)OC)ncn1 (stereo not shown) [Adjuvant 12] | 96

Tested on: Lolium perenne (LOLPE)
Experiment: Adjuvant efficacy with pinoxaden, glasshouse spray test
Format: in vivo
Conditions: pinoxaden EC, mean over 7.5 and 15 g/ha and 3 replicates; adjuvant 0.2% v/v (none in No Adjuvant rows); % leaf area killed, 21 days after application; Tests 1-4 separate runs
Protocol: as §1, with “pinoxaden” for “nicosulfuron”, “species,” for “species”, “20/16°” for “24/18°”, “Pinoxaden” for “Nicosulfuron”, “EC (emulsifiable concentrate)” for “WG (water dispersible granule)”
(§5) The spray tests were also carried out using pinoxaden in conjunction with adjuvants 1-12. The adjuvants were added to the spray solution at a rate of 0.2% v/v unless otherwise stated. All spray solutions also contained 10% w/w of iso-Propanol. The weed species and their BBCH growth stage at spraying were Avena fatua (AVEFA; growth stage 12), Lolium perenne (LOLPE; growth stage 13), Alopecurus myosuroides (ALOMY; growth stage 13), and Setaria viridis (SETVI; growth stage 13-14). Each spray test was replicated three times. The test plants were then grown in a glasshouse under controlled conditions (at 20/16° C. day/night; 16 hours light; 65% humidity) and watered twice a day. The efficacy of the herbicide was assessed visually and expressed as a percentage of the leaf area killed. Samples were assessed at a time period of 21 days following application. The results shown in Table 4 below are mean averages over the two rates of pinoxaden, and the three replicates.

SMILES | Mean % Herbicidal Activity LOLPE [%]
CCCCCCCCC=CCCCCCCCCOc1cc(OCCOCCOCCOCCOCCOCCOCCOCCOCCOCCOCCOCCOCCOCCOCCOCCOCCOCCOCCOCCOC)ncn1 [Adjuvant 11] | 15
CCCCCCCCCCCCOc1cc(OCC(C)OCC(C)OCC(C)OC)ncn1 (stereo not shown) [Adjuvant 12] | 76

Tested on: Setaria viridis (SETVI)
Experiment: as above
Format: in vivo
Conditions: pinoxaden EC, mean over 7.5 and 15 g/ha and 3 replicates; adjuvant 0.2% v/v (none in No Adjuvant rows); % leaf area killed, 21 days after application; Tests 1-4 separate runs
Protocol: as §1, with “pinoxaden” for “nicosulfuron”, “species,” for “species”, “20/16°” for “24/18°”, “Pinoxaden” for “Nicosulfuron”, “EC (emulsifiable concentrate)” for “WG (water dispersible granule)”
as §5

SMILES | Mean % Herbicidal Activity SETVI [%]
CCCCCCCCC=CCCCCCCCCOc1cc(OCCOCCOCCOCCOCCOCCOCCOCCOCCOCCOCCOCCOCCOCCOCCOCCOCCOCCOCCOCCOC)ncn1 [Adjuvant 11] | 84
CCCCCCCCCCCCOc1cc(OCC(C)OCC(C)OCC(C)OC)ncn1 (stereo not shown) [Adjuvant 12] | 94

Tested on: Avena fatua (AVEFA)
Experiment: as above
Format: in vivo
Conditions: pinoxaden EC, mean over 7.5 and 15 g/ha and 3 replicates; adjuvant 0.2% v/v (none in No Adjuvant rows); % leaf area killed, 21 days after application; Tests 1-4 separate runs
Protocol: as §1, with “pinoxaden” for “nicosulfuron”, “species,” for “species”, “20/16°” for “24/18°”, “Pinoxaden” for “Nicosulfuron”, “EC (emulsifiable concentrate)” for “WG (water dispersible granule)”
as §5

SMILES | Mean % Herbicidal Activity AVEFA [%]
CCCCCCCCC=CCCCCCCCCOc1cc(OCCOCCOCCOCCOCCOCCOCCOCCOCCOCCOCCOCCOCCOCCOCCOCCOCCOCCOCCOCCOC)ncn1 [Adjuvant 11] | 41
CCCCCCCCCCCCOc1cc(OCC(C)OCC(C)OCC(C)OC)ncn1 (stereo not shown) [Adjuvant 12] | 87

Tested on: Alopecurus myosuroides (ALOMY)
Experiment: as above
Format: in vivo
Conditions: pinoxaden EC, mean over 7.5 and 15 g/ha and 3 replicates; adjuvant 0.2% v/v (none in No Adjuvant rows); % leaf area killed, 21 days after application; Tests 1-4 separate runs
Protocol: as §1, with “pinoxaden” for “nicosulfuron”, “species,” for “species”, “20/16°” for “24/18°”, “Pinoxaden” for “Nicosulfuron”, “EC (emulsifiable concentrate)” for “WG (water dispersible granule)”
as §5

SMILES | Mean % Herbicidal Activity ALOMY [%]
CCCCCCCCC=CCCCCCCCCOc1cc(OCCOCCOCCOCCOCCOCCOCCOCCOCCOCCOCCOCCOCCOCCOCCOCCOCCOCCOCCOCCOC)ncn1 [Adjuvant 11] | 11
CCCCCCCCCCCCOc1cc(OCC(C)OCC(C)OCC(C)OC)ncn1 (stereo not shown) [Adjuvant 12] | 23
